Reference: patent US9611276B2, “Imidazo bicyclic iminium compounds as antitumor agents” (THE BOARD OF TRUSTEES OF THE LELAND STANFORD JUNIOR …, priority 2012, dated 2017)

Experiments:
Hh pathway activity [1] = experiment: Sufu-KO-LIGHT cell assay, Gli-dependent firefly luciferase reporter; assay type: cell-based, mouse; conditions: for IC50: Mus musculus
Description: Sufu-KO-LIGHT cells were derived from Sufu knockout mouse embryonic fibroblasts according to the method of Chen et al. [Genes Dev. 2009; 23(16):1910-28.] The cells were co-transfected with the zeocin resistance vector (pVgRXR, Invitrogen) and a firefly luciferase reporter driven by eight Gli binding sites and a γ-crystallin basal promoter (8XGliBS-FL) [see Sasaki et al. Development. 1997; 124(7):1313-22.2]. […] Sufu-KO-LIGHT cells were cultured in DMEM (Invitrogen, 11965) containing 10% (v/v) fetal bovine serum (Invitrogen, No. 26140), 150 μg/mL zeocin (Invitrogen, R250-01), 1 mM sodium pyruvate (Invitrogen, 11360) and 1× PenStrep (Gibco, 15140).
(§1) All test compounds were dissolved in DMSO at 50 mM, serially diluted by 1:3, 1:4 or 1:5 in a 96-well translucent microplate (Greiner bio-one, 650201) and stored at −20° C. These serial dilutions were added to assay media freshly with final DMSO concentration of 0.2% (v/v).
The Sufu-KO-LIGHT cell assay provides a measure of Hh pathway activity and cytotoxicity. Sufu-KO-LIGHT cells were seeded into a 96-well plate (35,000 cells/well), cultured to confluency for 24 hrs and then incubated with test compounds in DMEM without phenol red (Invitrogen, 26140) containing 0.5% (v/v) fetal bovine serum (Invitrogen, No. 26140), 150 μg/mL zeocin (Invitrogen, R250-01), 1 mM sodium pyruvate (Invitrogen, 11360), 1× PenStrep (Gibco, 15140) for 16 hrs. Bright Glo (Promega, E2620) reagent (50 μL/well) was added to the cells, and luciferase activities were determined on a microplate luminometer (Veritas). To assess cytotoxicity, after 15 hrs of incubation with test compounds, CellTiter 96 AQueous One Solution Cell Proliferation Assay (Promega, G3580) reagent (20 μL/well) was added. Cell viability was determined by measuring absorption at 490 nm after 1 hr of incubation on a microplate spectrophotometer (Benchmark Plus, Bio-Rad). Biological triplicates were analyzed for each test compounds.

Hh pathway activity [2] = experiment: Shh-LIGHT2 cell assay with ShhN-conditioned medium; assay type: cell-based
Description: Shh-LIGHT2 cells [see Taipale et al. Nature. 2000; 406(6799):1005-9], an NIH-3T3-based cell line containing a stably integrated Gli-responsive firefly luciferase reporter (8XGliBS-FL) and constitutive Renilla luciferase reporter (pRLTK, Promega), were cultured in DMEM (Invitrogen, 11965) containing 10% (v/v) calf serum [the American Type Culture Collection (ATCC), 30-2030], 150 μg/mL zeocin (Invitrogen, R250-01), 400 μg/mL G418 (Invitrogen, 11811), 1 mM sodium pyruvate (Invitrogen, 11360) and 1× PenStrep.
as §1
The Shh-LIGHT2 cell assay provides a measure of Hh pathway activity. ShhN-conditioned medium was prepared by culturing a Shh-N-producing HEK 293 cell line [see Chen et al. Proc Natl Acad Sci USA. […] The cells were lysed with passive lysis buffer (50 μL/well), and 10 μL of the obtained lysate were analyzed for firefly and Renilla luciferase activities using Dual-Luciferase Reporter Assay System (Promega, E1960) (50 μL/well of each reagent) on a microplate luminometer (Veritas). Biological triplicates were analyzed for each test compounds.

Gli3 = experiment: Hh ligand-dependent Gli3 processing in Shh-EGFP cells; assay type: cell-based
Description: Each compound or vehicle treatment was conducted in the presence or absence of 10% (v/v) Shh-N-conditioned medium. The cells were then lysed by incubation with SDS-PAGE loading buffer composed of 50 mM Tris-HCl, pH 6.8, 2% (w/v) SDS, 8% (v/v) glycerol, 100 mM DTT, 0.1 mg/mL bromophenol blue, EDTA-free protease inhibitor cocktail (Roche) and Phosstop (Roche) for 5 min in a cold room. […] The membranes were dehydrated with methanol and probed overnight at 4° C. with goat polyclonal anti-Gli3 antibody (1 μg/mL; R & D Systems, AF3690) in PBS containing 4% (w/v) non-fat dry milk and 0.01% (v/v) Tween-20 (immunoblot blocking buffer). […] Band intensities of Gli3FL and Gli3R were quantified using ImageJ64 software (NIH), and three independent experiments were used to determine the average Gli3FL/Gli3R ratio for each compound.

CCOc1ccc(-[n+]2cc(-c3ccc(Br)cc3)n3c2CCCCC3)cc1 [Compound A-1]
IC50 (Hh pathway activity [1]): 1420 ± 960 nM
IC50 (Hh pathway activity [1]; read-out: IC50, firefly luciferase): 1420 ± 960 nM
Inhibition of Hh pathway activity (Hh pathway activity [1]; Sufu-KO-LIGHT cells): inhibits Hh pathway activity
Inhibition of Hh pathway activity (Hh pathway activity [2]; Shh-LIGHT2 cells stimulated with ShhN): inhibits Hh pathway activity
IC50 (Hh pathway activity [2]; Shh-LIGHT2 w/ ShhN, read-out: IC50, firefly luciferase): 6600 nM
Effect on Gli3FL phosphorylation (Gli3): Nor did the compound prevent Gli3FL phosphorylation
Effect on Gli3 processing, Gli3FL/Gli3R ratio (Gli3; ShhN stimulation): did not perturb Gli3 processing
